Laboratory results published in a melting point compilation (Tetko et al.; mined from patent text by program, amines drawn as free bases though some values may be those of a salt).

| Structure (SMILES) | melting point |
| --- | --- |
| O=C1NCc2cc(C3CC3)sc21 | 109 to 110 °C |
| O=C1CC(O)CN1C(=O)Nc1ccccc1 (configuration not stated) | 104 °C |
| COc1cc(NC=CS(=O)(=O)F)c(C(C)=O)cc1OC | 142 to 146 °C |
| O=C(O)C#Cc1c(Cl)cc(Cl)cc1Cl | 170 to 175 °C |
| O=c1[nH]c2ccc(S(=O)(=O)N(CCO)CCO)cc2[nH]c1=O | 272 to 276 °C |
| Cn1c(=O)c2c(ncn2C(=O)CCC(=O)n2cnc3c2c(=O)n(C)c(=O)n3C)n(C)c1=O | 266 °C |
| CC1(CNC=O)CC(=O)c2ccccc2O1 (configuration not stated) | 96 to 98 °C |
| CSc1nc(F)cc(NN)n1 | 153 to 154 °C |
| COc1cc(NC(=O)C(C#N)=CNc2ccc(OC)c(I)c2)c(Cl)cc1Cl | 289 to 290 °C |
| CCOC(=O)C(=CC(=CN(C)C)C(=O)C(=O)OC)Sc1ccccc1 | 118 °C |
| CCCCCNC12CN3CN(CN(C3)C1)C2 | 119 to 120 °C |
| N#Cc1ccc(N2CCC(O)C2)c2ccccc12 (configuration not stated) | 138 to 139 °C |
| FC(F)(F)c1ccc(OCCCc2cn(C(c3ccccc3)(c3ccccc3)c3ccccc3)cn2)cc1 | 150 to 151 °C |
| OCCCOC(c1ccccc1)(c1ccccc1)c1ccccc1 | 117 to 118 °C |
| CCn1nc2c(N)nc3c(c2c1CC1(O)CCCCC1)CCCC3 | 232 to 234 °C |
| Sc1ccc(-c2nc3cnccc3[nH]2)cc1 | 230 °C |
| CC(C)c1cccc(C(C)C)c1NC(=O)CS(=O)(=O)CCCl | 166 to 168 °C |
| CC(=O)Oc1ccccc1C(=O)NC(S(=O)C(C)C)C(Cl)(Cl)Cl (configuration not stated) | 90 to 92 °C |
| Nc1c(-c2c[nH]nn2)c(=O)oc2ccccc12 | 265 to 268 °C |
| CCCCCCCCCCCCCCCCCCN(CCCCCCCCCCCCCCCCCC)CCCNC=O | 42 to 46 °C |
| O=C1CC(c2ccccc2)Cc2[nH]c3c(c21)CCCC3 (configuration not stated) | 257 to 259 °C |
| O=C(NCCCCSc1ccncc1)c1ccccc1CO | 87 to 88 °C |
| O=C1CCC(n2cnc3ccc(Cl)cc3c2=O)C(=O)N1 (configuration not stated) | 302 to 305 °C |
| COC(=O)C(=Cc1ccc(OC)c(OC)c1)C(C)=O | 93 to 95 °C |
| FC(F)(F)c1ccc2c(Nc3ccncc3)noc2c1 | 249 to 250 °C |
| COC(=O)c1nsc(N)n1 | 202 to 205 °C |

| Structure (SMILES) | melting point |
| --- | --- |
| CCOC1C=CC(=O)N1 (configuration not stated) | 50 to 52 °C |
| NC1(CC(=O)O)CCCCC1 | 200 to 204 °C |
| CC(C(=O)NCC(F)(F)C(F)(F)F)C(=O)NC1C(=O)N(C)c2cc(F)ccc2OC1C (configuration not stated) | 126 to 134 °C |
| CCOC(=O)CC1CCC2C3CC=C4C(C)(C)C(O)CCC4(C)C3CCC12C (configuration not stated) | 127 to 129 °C |
| CCOC(=O)c1cc2c([nH]1)CN(C(=O)OCC(Cl)(Cl)Cl)CC2 | 126 to 127 °C |
| CCCCCCCCCCCCCCCC(=O)Nc1cccc(C(=O)O)c1C | 163 to 165 °C |
| CCC(=O)OCC(=O)OC1C(CC)CC2C3CCC4=CC(=O)CCC4C3CCC21C (configuration not stated) | 101 to 104 °C |
| CCCCCCCCC#CCC#CCC#CCS(=O)CC(=O)NCC (configuration not stated) | 77 °C |
| CSC(=Nc1ccccc1C(=O)NC(C)C)NC(=O)c1ccccc1 | 117 to 120 °C |
| Nc1ncccc1OCc1ccccc1Br | 99 to 100 °C |
| CN(C)C(N)=Nc1ccccc1N1CCOCC1 | 143 to 144 °C |
| COC(=O)c1nc(SC)n(-c2ccccc2)c1C(=O)OC | 121 to 122 °C |
| Cc1nnc(-c2cccc(I)c2)o1 | 104 to 105 °C |
| CNc1cc(NC)c(C(=O)NCCC(=O)OC)cc1NC(=O)c1ccc(C#N)cc1 | 208 to 210 °C |
| COc1cncc2nc(SCc3ccccc3)nn12 | 114 to 116 °C |
| CC1(C)OC(=C(C#N)C#N)C(C#N)=C1/C=C/c1ccc(N)cc1 | 360 °C |
| C[C@H](OC(=O)NCC(F)(F)C(F)(F)F)C(=O)N[C@@H]1C(=O)N(C)c2cc(F)ccc2O[C@@H]1C | 148 to 150 °C |
| CCCn1nc2c(N)nc3ccccc3c2c1CC(C)(C)S(C)(=O)=O | 202 to 204 °C |
| CCCCCCCC(O)CNCCCNCC(O)CCCCCCC (configuration not stated) | 107 to 109 °C |
| Cc1ccc(-c2csc(NC(=O)c3nnn[nH]3)n2)cc1 | 250 to 253 °C |
| CCOC(=O)c1ncn2c1CNC(=O)c1ccccc1-2 | 248 to 250 °C |
| CCN(CC)CCN1C(=O)c2cscc2N(C)c2ccccc21 | 92 to 93 °C |
| CCCCCCCSc1nn2c(=O)c(C)c(Cl)nc2s1 | 79 to 81 °C |
| CN1C(=O)CCC1(O)c1ccc(Cl)c(N)c1 (configuration not stated) | 154 °C |
| Nc1cn(C2CCN(c3c(F)c(N)c4c(=O)c(C(=O)O)cn(C5CC5)c4c3F)C2)nn1 (configuration not stated) | 210 to 213 °C |

The next lines start with the values.

| melting point | Structure (SMILES) |
| --- | --- |
| 86 to 88 °C | CC(=O)OC(C)c1cccc2cc(C(=O)CBr)oc12 (configuration not stated) |
| 76 to 77 °C | CC(C)c1ccc(C(=O)C2CCN(Cc3ccccc3)CC2)cc1 |
| 130 to 132 °C | Cc1ccc(OCCC(C(=O)O)c2ccccc2)c2ccccc12 (configuration not stated) |
| 117 to 119 °C | CN(C)CCC(Oc1ccc(C(F)(F)F)cc1)c1ccccc1 (configuration not stated) |
| 135 °C | CNC(=S)Nc1ccc(Cc2cc(C)c(C(=O)c3ccc(Cl)cc3)n2C)nc1 |
| 225 to 227 °C | CSc1cc(C)nc(SC)c1NC(=O)C=CC1=C(c2ccccc2)c2ccccc2OC1 |
| 140 to 143 °C | CCCN(c1ccncc1)N1C(=O)Cc2ccccc21 |
| 301 to 302 °C | CN(Cc1cc(C(F)(F)F)cc(C(F)(F)F)c1)C(=O)c1c(-c2ccc(C(=O)O)cc2)c2cccnc2c(=O)n1C |
| 144 to 146 °C | Fc1ccc(Oc2cc3c(Cl)nc(Cl)nc3cn2)c(F)c1 |
| 219 to 221 °C | CON=C1CN(c2c(F)cc3c(=O)c(C(=O)O)cn(C4CC4)c3c2OC)CC12CC2 |
| 191 °C | CC1(C)CC(=O)Nc2c(CCN3CCN(c4nsc5ccc(F)cc45)CC3)cc(F)cc21 |
| 105 °C | CCc1cccc(C)c1CNc1nc(OCCOC)cc2c1nc(C)n2C |
| 178 °C | CCc1ccc(OCCc2c[nH]cn2)cc1 |
| 84 to 86 °C | CCOc1cc(C(CS(C)(=O)=O)N2C(=O)c3cccc(CNC(C)=O)c3C2=O)ccc1OC (configuration not stated) |
| 103 to 104 °C | CCOC(=O)C1=C(COCCCCO)NC(C)=C(C(=O)OC)C1c1cccc(Cl)c1Cl (configuration not stated) |
| 135 to 137 °C | CC(=O)c1ccc(C(=O)N2Cc3cccn3Cc3ccccc32)cc1 |
| > 320 °C | O=C1c2ccccc2C(=O)c2c1c(Br)n1c2Cc2ccccc2C1 |
| 115 to 116 °C | O=C1CC(c2ccccc2)NC(=O)C1C(=O)c1ccccc1F (configuration not stated) |
| 179 to 182 °C | COc1ccc2cc([C@@H]3CCN(C[C@H](O)COc4cccc5[nH]ccc45)[C@@H](C)C3)sc2c1 |
| 195 to 196 °C | O=C1Cc2cc(F)cc(C(=O)c3ccc(F)cc3)c2N1 |
| 164 to 165 °C | O=C(NC1CCCc2ccccc21)c1ccc2cnccc2n1 (configuration not stated) |
| 93 to 94 °C | CCOC(=O)NCCCC1OCC(c2cccc3ccccc23)CO1 (configuration not stated) |
| 195 to 197 °C | CN1CCN(c2cccc(-c3cnn4c(N)c(-c5cccc(Br)c5)cnc34)c2)CC1 |
| 155 °C | O=C1c2ccccc2C(=O)N1CCOc1nc(-c2ccccc2)c2cc(Cl)ccc2n1 |
| 178 °C | CCOC(=O)c1nn(-c2ccc(OC(F)(F)F)cc2)c2cccc(F)c2c1=O |
| 63 to 64 °C | CCc1nc(-c2ccc(OCCCc3cccnc3)cc2)no1 |

| melting point | Structure (SMILES) |
| --- | --- |
| 203 to 206 °C | CCn1cc(C(=O)O)c(=O)c2cc(F)c(N3CCC(CN)CC3)nc21 |
| 92 to 93 °C | Cc1oc(-c2ccco2)nc1COc1ccc(Cn2cc(CCC(=O)O)c(-c3ccc(C(F)(F)F)cc3)n2)cc1 |
| 168 to 174 °C | O=C(N[C@H](Cc1ccccc1)C(=O)O)OCc1cc2cc(-c3ccccc3)ccc2[nH]1 |
| 154 to 155 °C | CCCCCN(CCCCC)C(=O)[C@H]1Cc2c([nH]c3ccccc23)CN1C(=O)Nc1cccc(C)c1 |
| 171 to 172 °C | CSC1C(=O)Nc2c(C(=O)c3ccc(F)cc3)cc(F)cc21 (configuration not stated) |
| 92 to 95 °C | CC#CCOc1ccc(S(=O)(=O)NC(C(=O)NO)c2ccc(OCCN3CCN(C(=O)OC(C)(C)C)CC3)cc2)cc1 (configuration not stated) |
| 63 to 64 °C | CCCCCCCCn1c2cc(OC)ccc2c2ccc(OC)cc21 |
| 63 to 64 °C | CCOC(=O)c1c2c3c(cccc3n1C)C(OC)CC2 (configuration not stated) |
| 255 to 256 °C | Cc1cc(-c2cc(=O)c3ccccc3o2)cc(C)c1O |
| 178 to 182 °C | Cn1c2ccc(Cl)cc2c2cc(C(=O)N3CCOCC3)sc21 |
| 136 to 138 °C | CC(=O)c1ccc(OC(C)c2ccnc3ncnn23)cc1 (configuration not stated) |
| 68 to 70 °C | N=C(N)c1ccc2ncn(CC(=O)N3CCC(Cc4ccccc4)CC3)c2c1 |
| 209 to 211 °C | COc1ccc(C(C)(C)C)cc1NC(=O)Nc1ccc(-c2cnc3c(c2)NC(=O)CS3(=O)=O)c2ccccc12 |
| 107 °C | Cc1ccc(S(=O)(=O)N2[C@H](CCCc3nnn(C)n3)CC[C@@H]2c2ccc(F)cc2)cc1 (racemic) |
| 196 to 198 °C | COCC(=O)NCc1cccc2c1C(=O)N(C1CCC(=O)NC1=O)C2=O (configuration not stated) |
| 137 to 139 °C | O=C(Oc1ccccc1)N1CCC(c2nn(C(=O)c3ccccc3)c3cc(F)ccc23)CC1 |
| 154 °C | COc1ccc(Br)c(C(=O)N2CCN(S(=O)(=O)c3c(F)cccc3F)CC2)c1 |
| 199 to 200 °C | CS(=O)(=O)Nc1cc2occ(C=NO)c(=O)c2cc1Oc1ccccc1 |
| 199 to 200 °C | COc1ccc(C(=O)Nc2ccc(F)cc2)cc1Nc1cc(C)cc(C)c1 |
| 134 to 137 °C | CN(CCn1ncc2ccccc2c1=O)CC(O)c1ccc(NS(C)(=O)=O)cc1 (configuration not stated) |
| 178 to 181 °C | CC(=O)NC[C@H]1CN(c2ccc(N3CCN(C(=O)CCCC(=O)c4ccc(NC(=O)CN)cc4)CC3)c(F)c2)C(=O)O1 |
| 124 to 125 °C | COc1ccccc1OCC(O)CN1CCC2(CC1)CNC(=O)O2 (configuration not stated) |
| 163 to 164 °C | CCOC(=O)c1c(-c2ccccc2)csc1N1C(=O)c2ccccc2C1=O |
| 241 to 242 °C | Cc1cn(C2CCN(c3c(F)cc4c(=O)c(C(=O)O)cn5c4c3OCC5C)C2)nn1 (single isomer, unassigned; (-)) |
| 195 to 197 °C | Cn1cc(C(=O)NCc2ccc(Cl)cc2)c(=O)c2cc(CN3CCOCC3)cc(C#Cc3cccnc3)c21 |
